Patent US12220703B2, “Multi function spinning platform” (Danmarks Tekniske Universitet, priority 2018, dated 2025)

Tested on: P. aeruginosa biofilm
Assay: Antibiotic treatment of mature biofilm in perfusion on the centrifugal microfluidic disc, propidium iodide dead/alive biomass by confocal microscopy
Assay type: cell-based
Conditions: 72 hours biofilm, after 24 hours of antibiotic perfusion, ciprofloxacin 4 μg/mL
Experimental: The following is an example of how to set up an experiment using the centrifugal microfluidic disc according to the present disclosure. Initially, the entire system including the microfluidic channels is sterilized. After the sterilization of the disc, the system was filled with a medium and left overnight at a low flow rate (pump set on 0.5 RPM, around 60 μL/min). The inoculation of the bacteria in the sterilized disc was achieved by addition of 40 μL overnight culture of 1:100 diluted P. aeruginosa though the inoculation channel situated in close proximity to the cell culture chamber (see FIG. 30). During inoculation, the loading opening was closed to create a back-pressure avoiding bacteria occlusion in the serpentine channel. The adhesion of the bacteria in the culture chamber was carried out in stop flow for one hour, followed by rotation at the set frequency. The total volume of the cell chamber is around 55 μL and only 40 μL of PAO1 was inoculated in order to prevent the introduction of bacteria in the inlet channel. The inoculation in the flow system was achieved by stopping the pump and adding 250 μL overnight culture of 1:100 diluted P. aeruginosa in the selected channels in proximity of the flow chamber. It was important to clamp the silicone tubes which were feeding the channels in order to avoid a back flow. […]

O=C(O)c1cn(C2CC2)c2cc(N3CCNCC3)c(F)cc2c1=O [antibiotic, Ciprofloxacin]
bacteria dead after antibiotic perfusion (flow rate 0.3 μL/min): around 70%
bacteria dead after antibiotic perfusion (flow rate 1 μL/min): around 50%
